Data on ten molecules can be found in PubChem BioAssay (NCI).

What all share (test): NCI-60 cell line screen, 48 h
Assay [1] deals with EKVX NSCLC.
Assay [2] has as its system K-562 leukemia.
Assay [3] has as its system LOX IMVI melanoma.
The test system of assay [4] is SR leukemia.
In assay [5] the test system is HCT-15 colon.
Assay [6] relates to SF-539 CNS.
The test system of assay [7] is OVCAR-4 ovarian.
In assay [8] the test system is SK-MEL-5 melanoma.
The test system of assay [9] is A498 renal.
Assay [10] relates to HT29 colon.

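Method: 48-hour compound exposure of cells in 96-well plates, five concentrations, linear interpolation of endpoints. Definition used: TGI = concentration required for complete inhibition of growth.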 Bounds are passed on as bounds.

With `C[C@@H]1CCC2[C@@H](C)[C@@H](O[C@H]3O[C@@H]4O[C@@]5(C)CCC6[C@H](C)CCC([C@H]3C)[C@]64OO5)O[C@@H]3O[C@@]4(C)CCC1[C@@]23OO4` (stereo not given in full), the TGI in assay [1], in [2], in assay [3], in [4], in assay [5] and in [6] was more than 25 µM throughout. Also, the TGI in assay [7], in assay [8], in assay [9] and in [10] was more than 25 µM in each case.

In the case of `COc1ccc2oc(=N)c(C(=O)Nc3ccccc3)cc2c1`, the TGI in assay [1] was more than 100 µM; in assay [2], 4.19 µM; in [3], more than 100 µM; in assay [4], more than 100 µM; in assay [5] it was more than 100 µM; in [6], 51.6 µM. The TGI in assay [7] is more than 100 µM; in [8], more than 100 µM; in assay [9], 39.8 µM; in assay [10], more than 100 µM.

Turning to `CC(C)(C)OC(=O)NC(CSSCC(NC(=O)OC(C)(C)C)C(=O)O)C(=O)O` (stereo not given), the TGI in assay [1], in [2], in assay [3], in assay [4], in assay [5] and in [6] was more than 100 µM each time. Also, the TGI in assay [7], in assay [8], in assay [9] and in assay [10] was more than 100 µM in each case.

Take `CC1=C(C#N)c2nc3ccccc3n2C(=O)C1(C)CCO` (stereo not given): the TGI in assay [1], in assay [2], in [3], in [4], in assay [5] and in assay [6] was more than 100 µM throughout. Besides, the TGI in assay [7], in assay [8], in [9] and in [10] was more than 100 µM each time.

Take `C=CCn1c(=O)ccn(/C(=C/C(=O)OCC)C(=O)OCC)c1=O`: the TGI was 38.2 µM in assay [1]; 12.5 µM in assay [2]; 18.1 µM in assay [3]; 23.2 µM in assay [4]; 6.52 µM in [5]; 49.5 µM in assay [6]. Also, the TGI was more than 51.4 µM in assay [7], 29.1 µM in [8], 33.3 µM in [9] and 27.9 µM in assay [10].

As to `CCOC(=O)C(NC(=O)CC)(N1CCN(c2cc3c(cc2F)c(=O)c(C(=O)O)cn3C2CC2)CC1)C(F)(F)F` (stereo not given), the TGI in assay [1], in [2], in assay [3], in assay [4], in assay [5] and in assay [6] was more than 100 µM each time. Further, the TGI in [7], in assay [8], in assay [9] and in [10] was more than 100 µM in each case.

In the case of `CCc1n[nH]c(=O)n1-c1ccc2ccccc2c1`, the TGI in assay [1], in assay [2], in assay [3], in [4], in assay [5] and in [6] was more than 100 µM in each case. The TGI in [7], in assay [8], in [9] and in [10] was more than 100 µM each time.

For `C=C(CN(C)C)C(=O)c1ccc(C(=O)C(=C)CN(C)C)cc1`, the TGI in assay [1], in assay [2], in assay [3], in assay [4], in [5] and in [6] was more than 100 µM in each case. Besides, the TGI in assay [7], in assay [8], in assay [9] and in [10] was more than 100 µM each time.

With `CC1(C)CCc2c(ccc(C(=O)/C=C/c3ccc(O)cc3)c2O)O1`, the TGI was 10.1 µM in assay [1]; 75 µM in [2]; 19.8 µM in [3]; 30.5 µM in assay [4]; 20.5 µM in assay [5]; 22 µM in [6]. Moreover, the TGI in assay [7] was found to be 19.6 µM; in [8] it was 22 µM; in assay [9], 29.8 µM; in assay [10], 23.9 µM.

As for `CCOC(=O)c1c2cccccc-2nc1Nc1cccc2c(C)ccnc12`, the TGI in assay [1], in [2], in assay [3], in assay [4], in assay [5] and in [6] was more than 10 µM throughout. The TGI in assay [7], in assay [8], in assay [9] and in assay [10] was more than 10 µM each time.
